The target of the experiment is T1, Oxytocin Receptor (CHO-OTR/NFAT-β-Lactamase cells) (Homo sapiens, UniProt P30559).
T1 construct: expressed in transfected cells; host or cells: CHO (CHO-OTR cell line further transfected with the NFAT-β-lactamase reporter)
T1 sequence (P30559 1-389): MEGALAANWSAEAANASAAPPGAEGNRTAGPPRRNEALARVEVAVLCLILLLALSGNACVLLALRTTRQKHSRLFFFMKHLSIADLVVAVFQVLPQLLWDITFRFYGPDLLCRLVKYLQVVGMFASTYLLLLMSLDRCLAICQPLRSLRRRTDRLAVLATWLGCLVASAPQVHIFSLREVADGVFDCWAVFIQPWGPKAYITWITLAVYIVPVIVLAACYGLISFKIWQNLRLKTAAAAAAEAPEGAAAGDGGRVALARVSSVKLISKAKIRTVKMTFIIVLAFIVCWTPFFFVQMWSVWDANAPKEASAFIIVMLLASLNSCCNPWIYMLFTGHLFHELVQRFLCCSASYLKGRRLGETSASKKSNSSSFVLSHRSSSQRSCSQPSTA
As to the kind of experiment: Oxytocin Receptor Beta-Lactamase Assay. As to conditions: oxytocin stimulation 4 hours, read-out: oxytocin antagonist activity, expressed as a Ki value. Format: cell-based. As to the method: A suitable assay for determining the oxytocin antagonist activity of a compound is detailed herein below.
Oxytocin Receptor Beta-Lactamase Assay
Cells used are CHO-OTR/NFAT-β-Lactamase. The NFAT-β-lactamase expression construct was transfected into the CHO-OTR cell line and clonal populations were isolated via fluorescence activated cell sorting (FACS). An appropriate clone was selected to develop the assay. […]
Cells grown at 80-90% confluence were harvested and counted. […]
Preparation of 1 ml of 6× Loading Buffer with Enhanced Loading Protocol (this requires scale-up according to number of plates to be screened) • 12 μl of solution A (1 mM CCF4-AM in Dry DMSO) was added to 60 μl of solution B (100 mg/ml Pluronic-F127 in DMSO+0.1% Acetic Acid) and vortexed. • The resulting solution was added to 925 μl of solution C (24% w/w PEG400, 18% TR40 v/v in water). • 75 μl of solution D was added (200 mM probenecid in 200 mM NaOH). • 10 μl of 6× Loading Buffer was added to all wells and incubated for 1.5 hrs-2 hrs at room temperature in the dark. • The plates were read using an LJL Analyst, Excitation 405 nm, Emission 450 nm and 530 nm, gain optimal, lagtime 0.40 μs integration, 4 flashes, bottom reading.

What is called Ki is the dissociation constant of the complex between target and ligand, obtained from inhibition or displacement.

Take `COC(=O)N1Cc2nc(OC)ccc2-n2c(nnc2-c2ccc(-c3ccccc3OC)cc2)C1` [Example 8]: the Ki is 3 nM.

The values are drawn from US20070185078A1, “Substituted triazole derivatives as oxytocin antagonists” (priority 2004, published 2007).
